Test results from ChEMBL document CHEMBL1131209 (J Med Chem, 1998).

Tests used:
[1] = target: T1, Muscarinic acetylcholine receptor M2 (Rattus norvegicus, UniProt P10980); assay: Compound was tested for its binding affinity towards Muscarinic acetylcholine receptor M2 using [3H]NMS from rat heart
T1 sequence (P10980 whole entry): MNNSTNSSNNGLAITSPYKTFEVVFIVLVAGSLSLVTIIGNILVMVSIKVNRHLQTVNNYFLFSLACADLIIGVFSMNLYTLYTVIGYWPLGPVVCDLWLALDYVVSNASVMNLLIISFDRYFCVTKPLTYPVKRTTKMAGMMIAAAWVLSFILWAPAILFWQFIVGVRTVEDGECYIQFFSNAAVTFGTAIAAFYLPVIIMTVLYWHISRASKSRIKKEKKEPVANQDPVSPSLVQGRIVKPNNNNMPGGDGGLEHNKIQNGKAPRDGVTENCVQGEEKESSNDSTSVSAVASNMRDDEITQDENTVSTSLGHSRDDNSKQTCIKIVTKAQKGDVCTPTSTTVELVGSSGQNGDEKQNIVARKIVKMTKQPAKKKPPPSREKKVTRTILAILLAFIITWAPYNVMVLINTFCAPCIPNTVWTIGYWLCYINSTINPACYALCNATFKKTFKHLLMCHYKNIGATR

[2] = target: T2, Alpha-1A adrenergic receptor (Rattus norvegicus, UniProt P43140); assay: Compound was tested for its binding affinity towards Alpha-1A adrenergic receptor using [3H]prazosin from rat submaxillary gland
T2 sequence (P43140 whole entry): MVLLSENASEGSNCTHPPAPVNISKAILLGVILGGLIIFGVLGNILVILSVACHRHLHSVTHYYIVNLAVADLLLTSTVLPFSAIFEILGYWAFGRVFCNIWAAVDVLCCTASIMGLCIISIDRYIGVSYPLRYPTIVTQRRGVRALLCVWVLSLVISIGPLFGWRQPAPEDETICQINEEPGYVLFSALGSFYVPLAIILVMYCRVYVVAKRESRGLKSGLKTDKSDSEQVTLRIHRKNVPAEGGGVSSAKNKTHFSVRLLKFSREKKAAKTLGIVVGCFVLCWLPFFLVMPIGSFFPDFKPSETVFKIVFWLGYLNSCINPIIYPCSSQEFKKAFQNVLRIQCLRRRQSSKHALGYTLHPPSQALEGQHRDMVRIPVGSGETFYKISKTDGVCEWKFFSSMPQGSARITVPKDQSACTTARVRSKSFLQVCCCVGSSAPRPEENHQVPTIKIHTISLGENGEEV

D(2) dopamine receptor = D(2) dopamine receptor (Rattus norvegicus, UniProt P61169); assay: Compound was tested for its binding affinity towards Dopamine receptor D2 using [3H]spiperone from rat striatum
Sequence of D(2) dopamine receptor (P61169 whole entry): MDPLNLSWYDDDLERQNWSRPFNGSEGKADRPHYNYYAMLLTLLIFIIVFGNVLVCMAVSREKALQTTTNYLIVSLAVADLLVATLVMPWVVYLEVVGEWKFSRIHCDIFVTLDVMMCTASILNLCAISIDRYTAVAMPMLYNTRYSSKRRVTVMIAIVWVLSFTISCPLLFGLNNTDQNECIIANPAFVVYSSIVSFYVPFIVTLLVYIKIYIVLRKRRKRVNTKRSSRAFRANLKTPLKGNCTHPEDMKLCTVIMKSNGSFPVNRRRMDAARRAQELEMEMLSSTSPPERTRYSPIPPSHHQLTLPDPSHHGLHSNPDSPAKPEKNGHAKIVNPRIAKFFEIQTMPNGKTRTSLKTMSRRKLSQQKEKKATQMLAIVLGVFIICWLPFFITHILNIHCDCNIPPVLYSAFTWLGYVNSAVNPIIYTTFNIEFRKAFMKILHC

[3] = target: T3, Alpha-1B adrenergic receptor (Rattus norvegicus, UniProt P15823); assay: Compound was tested for its binding affinity towards Alpha-1B adrenergic receptor using [3H]prazosin from rat liver
T3 sequence (P15823 whole entry): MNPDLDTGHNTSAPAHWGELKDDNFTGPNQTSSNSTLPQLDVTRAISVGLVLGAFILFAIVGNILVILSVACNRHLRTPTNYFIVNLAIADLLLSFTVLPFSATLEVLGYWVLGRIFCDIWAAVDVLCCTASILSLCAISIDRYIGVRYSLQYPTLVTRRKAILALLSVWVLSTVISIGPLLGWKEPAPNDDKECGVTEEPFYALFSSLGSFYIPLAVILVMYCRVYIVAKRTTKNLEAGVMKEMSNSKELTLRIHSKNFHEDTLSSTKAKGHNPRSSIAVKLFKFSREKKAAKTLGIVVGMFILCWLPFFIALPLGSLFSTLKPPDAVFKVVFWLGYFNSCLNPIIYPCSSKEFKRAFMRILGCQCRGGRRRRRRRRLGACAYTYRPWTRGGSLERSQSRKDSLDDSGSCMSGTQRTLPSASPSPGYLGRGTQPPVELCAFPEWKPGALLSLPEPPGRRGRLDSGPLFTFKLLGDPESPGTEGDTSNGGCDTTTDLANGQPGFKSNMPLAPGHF

Opioid receptor = Opioid receptor (Rattus norvegicus, UniProt P33533+P34975+P33535); assay: Compound was tested for its binding affinity towards Opioid receptors using [3H]naloxone from rat whole brain
[4] = target: Glutamate receptor ionotropic, NMDA 2C (Rattus norvegicus, UniProt Q00961); assay: Compound was tested for its binding affinity towards PCP receptor using [3H](+)-NANM in the presence of 5 uM haloperidol from rat brain
Sequence of Glutamate receptor ionotropic, NMDA 2C (Q00961 whole entry): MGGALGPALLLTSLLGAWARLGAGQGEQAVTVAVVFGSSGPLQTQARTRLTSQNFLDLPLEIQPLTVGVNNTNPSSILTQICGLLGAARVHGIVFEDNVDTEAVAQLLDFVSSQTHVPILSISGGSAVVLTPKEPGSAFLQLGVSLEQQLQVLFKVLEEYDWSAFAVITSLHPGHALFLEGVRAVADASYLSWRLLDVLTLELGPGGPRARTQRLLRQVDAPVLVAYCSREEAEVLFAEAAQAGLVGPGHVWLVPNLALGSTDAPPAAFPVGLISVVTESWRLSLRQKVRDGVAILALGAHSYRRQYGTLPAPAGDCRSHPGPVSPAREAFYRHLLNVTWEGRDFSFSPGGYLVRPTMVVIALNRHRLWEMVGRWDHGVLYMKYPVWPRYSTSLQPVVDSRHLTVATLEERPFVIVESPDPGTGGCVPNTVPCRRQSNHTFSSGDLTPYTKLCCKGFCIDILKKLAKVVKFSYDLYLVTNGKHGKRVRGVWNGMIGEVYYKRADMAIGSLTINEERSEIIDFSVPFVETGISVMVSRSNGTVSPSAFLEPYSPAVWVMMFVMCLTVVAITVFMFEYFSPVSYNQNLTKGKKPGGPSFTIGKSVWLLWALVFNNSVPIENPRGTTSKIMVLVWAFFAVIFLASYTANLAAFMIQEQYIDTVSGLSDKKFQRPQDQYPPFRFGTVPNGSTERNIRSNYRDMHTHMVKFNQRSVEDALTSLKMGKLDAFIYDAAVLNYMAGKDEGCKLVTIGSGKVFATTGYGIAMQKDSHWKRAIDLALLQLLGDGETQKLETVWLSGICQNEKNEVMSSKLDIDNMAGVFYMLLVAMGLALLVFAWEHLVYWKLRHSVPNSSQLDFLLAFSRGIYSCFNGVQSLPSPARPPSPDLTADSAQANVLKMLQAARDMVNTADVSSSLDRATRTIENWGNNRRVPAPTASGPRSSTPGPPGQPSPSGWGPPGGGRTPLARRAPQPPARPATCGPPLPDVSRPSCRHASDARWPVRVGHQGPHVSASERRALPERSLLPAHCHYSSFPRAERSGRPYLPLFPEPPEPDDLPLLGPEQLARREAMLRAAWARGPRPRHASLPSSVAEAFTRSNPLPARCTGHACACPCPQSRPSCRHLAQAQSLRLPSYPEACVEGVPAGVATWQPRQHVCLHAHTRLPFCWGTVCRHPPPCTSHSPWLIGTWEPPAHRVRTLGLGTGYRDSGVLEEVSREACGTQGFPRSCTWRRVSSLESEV

[5] = target: Serotonin 2 (5-HT2) receptor; assay: Compound was tested for its binding affinity towards 5-hydroxytryptamine 2 receptor using [3H]ketanserin from guinea pig frontal cortex; type: tissue-based, Cavia porcellus
[6] = target: Muscarinic acetylcholine receptor M3 (Rattus norvegicus, UniProt P08483); assay: Compound was tested for its binding affinity towards Muscarinic acetylcholine receptor M3 using [3H]NMS from rat submaxillary gland
Sequence of Muscarinic acetylcholine receptor M3 (P08483 whole entry): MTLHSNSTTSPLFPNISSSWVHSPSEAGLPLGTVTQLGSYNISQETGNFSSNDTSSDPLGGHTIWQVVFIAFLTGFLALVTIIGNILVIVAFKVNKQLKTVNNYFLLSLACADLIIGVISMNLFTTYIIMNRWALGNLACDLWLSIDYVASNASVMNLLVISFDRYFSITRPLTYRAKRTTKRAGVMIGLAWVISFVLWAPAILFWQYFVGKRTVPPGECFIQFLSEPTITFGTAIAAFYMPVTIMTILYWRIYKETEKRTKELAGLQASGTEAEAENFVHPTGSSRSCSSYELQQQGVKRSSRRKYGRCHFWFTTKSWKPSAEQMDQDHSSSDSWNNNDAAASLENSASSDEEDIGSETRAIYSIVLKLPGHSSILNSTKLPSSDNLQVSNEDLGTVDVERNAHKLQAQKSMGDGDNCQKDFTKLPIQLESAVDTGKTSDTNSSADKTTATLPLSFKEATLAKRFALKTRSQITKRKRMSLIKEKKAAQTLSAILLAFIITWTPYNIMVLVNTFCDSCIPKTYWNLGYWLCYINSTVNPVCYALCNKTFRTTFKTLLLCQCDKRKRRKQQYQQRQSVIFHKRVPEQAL

Sigma 2 receptor = assay: Binding affinity towards sigma 2 receptor using [3H]DTG in the presence of 200 nM (+)-NANM from guinea pig brain; set-up: species or system Cavia porcellus

| Compound | Ki [1] | Ki [2] | Ki [3] | Ki (Opioid receptor) | Ki [4] | Ki [5] | Ki [6] | Ki (D(2) dopamine receptor) | Ki (Sigma 2 receptor) |
| --- | --- | --- | --- | --- | --- | --- | --- | --- | --- |
| [O-][S+]1c2ccccc2CCC12CCN(Cc1ccccc1)CC2 (stereo unspecified) | > 10 µM | > 10 µM | > 10 µM | > 10 µM | > 10 µM | > 10 µM | > 10 µM | > 10 µM | 1.7 µM |
| O=S1(=O)c2ccccc2CCC12CCN(Cc1ccccc1)CC2 | > 10 µM | > 10 µM | > 10 µM | > 10 µM | > 10 µM | > 10 µM | > 10 µM | > 10 µM | 1.8 µM |
| CN1CCN(C2=Nc3cc(Cl)ccc3Nc3ccccc32)CC1 [CLOZAPINE] | – | – | – | – | – | – | – | – | > 10 µM |
| COc1ccccc1CNCCCCCCNCCCCCCCCNCCCCCCNCc1ccccc1OC [METHOCTRAMINE] | – | – | – | – | – | – | 0.998 µM | – | – |

Continued, in another order:

| Ki [1] | Ki [2] | Ki [3] | Ki (Opioid receptor) | Ki [4] | Ki [5] | Ki [6] | Compound | Ki (D(2) dopamine receptor) | Ki (Sigma 2 receptor) |
| --- | --- | --- | --- | --- | --- | --- | --- | --- | --- |
| > 10 µM | > 10 µM | > 10 µM | > 10 µM | > 10 µM | > 10 µM | > 10 µM | c1ccc(CN2CCC3(CCc4ccccc4O3)CC2)cc1 | > 10 µM | 0.022 µM |
| 10.8 µM | > 10 µM | > 10 µM | > 10 µM | > 10 µM | 7.6 µM | > 10 µM | c1ccc(CN2CCC3(CCc4ccccc4S3)CC2)cc1 | 10.4 µM | 0.416 µM |
| 2.7 µM | > 10 µM | > 10 µM | > 10 µM | > 10 µM | 0.218 µM | > 10 µM | O=C1c2ccccc2CCC12CCN(Cc1ccccc1)CC2 | – | 0.01 µM |
